Source: patent US20240148648A1, “SUSTAINED RELEASE THERMOSETTING GELS COMPRISING ANESTHETIC DRUGS AND THE METHODS OF MAKING THE SAME” (Pacira Therapeutics, Inc., priority 2021, published 2024)
In brackets after ≈: the same amount, converted by molar mass.

Experiments:
[1] = Rheological analysis of hydrogel formulations (CGT, onset temperature, max G′); format: physicochemical; conditions: compared to the vehicle
Description: PEG 400 was used as a co-solvent to further enhance solubility of the active in aqueous media and to decrease the gelation temperature to be close to but below body temperature. Rheological properties including critical gelation temperature (CGT), onset temperature, and elastic (G′) and viscous (G″) moduli were used in conjunction with visual and IVR experiments to analyze the impact of different formulation component compositions and concentrations on the suitability of the formulation in an extended-release postsurgical pain management indication. […] The onset temperature refers to the temperature at which the viscous moduli begins to increase in rheometry.

physchem = conditions: for solubility: organic solvent or mixture
Procedure: In order to determine a suitable solvent, the solubility of all three APIs were determined in dimethyl sulfoxide, ethyl acetate, methylene chloride (DCM), benzyl alcohol, and dimethylacetamide (DMA).

[2] = In vitro release (IVR) at 37° C. in surfactant-containing media; format: physicochemical; conditions: cumulative drug release in vitro
Procedure: The formulations that transitioned only to a viscous liquid (and not an opaque depot) also dissolved with the addition of media in in vitro release (IVR) studies. Such formulations were not further characterized for IVR profile. IVR was conducted by placing an aliquot of formulation into a 50 mL conical tube placed in a 37° C. water bath on a shaker. The formulation was left to gel before surfactant-containing media was slowly added as not to disturb any formed depot.

| solubility (physchem) [mg/mL] | Compound | Impact of drug on gelation properties of the formulation [1] | Solubility in DCM (physchem) | In vitro release profile (in words) [2] |
| --- | --- | --- | --- | --- |
| 200 (≈ 693 mM) | CCCCN1CCCCC1C(=O)Nc1c(C)cccc1C (stereo not drawn) [bupivacaine, 1-butyl-N-(2,6-dimethylphenyl)piperidine-2-carboxamide] | slight impact on the onset temperatures | solubilized bupivacaine but did not maintain adequate drug solubility when mixed with the polymer system |  |
| 80 (≈ 292 mM) | CCCN1CCCC[C@H]1C(=O)Nc1c(C)cccc1C [ropivacaine, (2S)—N-(2,6-dimethylphenyl)-1-propylpiperidine-2-carboxamide] | slight decrease on the onset temperatures and max G′ values |  |  |
|  | CCN(CC)CC(=O)Nc1c(C)cccc1C [lidocaine, 2-(diethylamino)-N-(2,6-dimethylphenyl)acetamide] |  |  | faster drug release |
